Results reported in patent US11208405B2, “Pyrrole derivatives as PLK1 inhibitors” (SENTINEL ONCOLOGY LIMITED, priority 2017, dated 2021).
Where a name gives a salt, the structure may show the parent alone.

Key:
Format in all cases: cell-based
[1] = test system: HCT116 cells; assay: Effects on HCT116 colorectal cancer cell viability (cell titre blue, 72 hours); conditions: Homo sapiens, HCT-116, HCT116 cell line
Experimental: Assay to Measure the Effects of Compounds of the Invention on HCT116 Colorectal Cancer Cell Viability
The following protocol was used to measure the effects of compounds of the invention on HCT116 cell viability.
1. HCT116 cells were grown in RPM11640 media supplemented with Glutamax and 10% FBS in a 37° C./5% CO2 incubator.
2. Growing culture of HCT116 cells were trypsinised, counted and diluted to give 10,000 cells/mL in an appropriate volume, allowing at least 6 mL of cells per plate.
3. 200 μL of PBS were added to all the outer wells of a flat-bottomed (8×12) 96-well TC plate. 100 μL of media were added only to wells in column 11 of the plates (these wells provided a blank for the cell titre blue assay). Two compounds were assayed on each plate.
4. 100 ul of 10,000 cells/mL HCT116s were plated in rows B-G of each plate.
5. The cells were incubated (37° C. 5% CO2) for 24 hours before treating with compounds.
6. An 8 mM compound stock in DMSO was prepared for all compounds to be tested. 2.5 μL of the compound stock was added to 1000 μL growth medium in a 96-well deep well block and serial dilutions were prepared across the plate by transferring 500 μL into wells containing 500 μL growth medium+0.25% DMSO to give eight concentrations of compound (this ensured a constant amount of DMSO at all concentrations of compound). When making up growth medium+DMSO, an amount of 5 ml was allowed per compound to be diluted.
7. 3 rows of cells were treated with 100 μL/well from each row on the dilution plate so that each cell plate is treated with a single compound. This gave a final volume in all wells of 200 μL and a titration of compound from a final concentration of 10 uM down to 78 nM.
8. The cells were incubated (37° C. 5% CO2) for 72 hours.
9. 5 ul cell titre blue reagent (Promega) were added to all wells except the edge wells (which contain PBS only) and incubated (37° C. 5% CO2) for 2.5-3 hours.
10. Fluorescence was measured on a suitable plate reader using a 530-570 nm filter set for excitation and a 580-620 nm filter set for fluorescence emission.
11. Data were analysed using an appropriate graphing package (such as GraphPad Prism). Data were expressed as the concentration of compound causing a 50% inhibition of cell viability or GI50.

[2] = test system: KRAS G12V HeLa cell line; assay: Wild-type versus KRAS HeLa cell viability: oncogenic KrasG12V transgene; conditions: Homo sapiens; HeLa cells expressing KRAS G12V, 72 hours
Experimental: (§1) Assay to Measure the Effects of Compounds of the Invention on Wild-Type Versus KRAS HeLa Cell Viability
(§2) Identifying synthetic lethal interactions between targeted small molecule therapies and characterised oncogenic mutations is a goal of modern oncology drug discovery efforts. To this end, PLK1-PBD inhibitors were tested on HeLa cells engineered to inducibly express wild-type or oncogenic KrasG12V transgenes using the FLP-in/T-Rex system (Invitrogen). Cells were plated, and then treated with or without Doxycycline to induce transgene expression, and then treated with serially-diluted PBD inhibitors. After 72 hours of incubation, cell viability was assessed using the Cell Titre Blue reagent (Promega) and a BMG Pherastar plate reader. The effect of PBD inhibition on cell viability with either wild-type or oncogenic G12V KRAS was assessed using the graphing/curve-fitting packages in GraphPad Prism.

[3] = test system: wild-type HeLa cell line; assay: Wild-type versus KRAS HeLa cell viability: wild-type KRAS transgene; conditions: Homo sapiens; HeLa cells expressing wild-type KRAS, 72 hours; read-out: WT GI50
Experimental: as §1, §2

CN(C)CCNC(=O)c1ccc(Cl)c(-c2ccc(-c3ccc(Br)cc3)n2-c2ccccc2C(F)(F)F)c1 [Example 15, hydrochloride]
GI50 [1]: 2180 nM | GI50 [2]: 380 nM | GI50 [3]: 650 nM

CN(C)CCNC(=O)c1cccc(-c2ccc(-c3ccc(Br)cc3)n2-c2ccccc2O)c1 [Example 25, hydrochloride]
GI50 [1]: 3890 nM | GI50 [2]: 3580 nM | GI50 [3]: 2510 nM

CN(C)CCNC(=O)c1ccc(-c2ccc(-c3ccccc3)n2-c2ccccc2C(F)(F)F)cc1 [Example 26, hydrochloride]
GI50 [1]: 120 nM | GI50 [2]: 70 nM | GI50 [3]: 120 nM

CN(C)CCNC(=O)c1ccc(-c2ccc(-c3ccc(Br)cc3)n2-c2ccccc2C(F)(F)F)cn1 [Example 28]
GI50 [2]: 30 nM | GI50 [3]: 60 nM

CN(C)CCCNC(=O)c1ccc(-c2ccc(-c3ccc(Br)cc3)n2-c2ccccc2C(F)(F)F)cc1 [Example 34]
GI50 [1]: 80 nM | GI50 [2]: 90 nM | GI50 [3]: 130 nM

CN(C)CCCOc1ccc(-c2ccc(-c3ccc(Br)cc3)n2-c2ccccc2C(F)(F)F)cc1 [Example 35, hydrochloride]
GI50 [1]: 220 nM | GI50 [2]: 140 nM | GI50 [3]: 210 nM

CN(C)CCNC(=O)c1ccc(-c2ccc(-c3ccc(Br)cc3)n2-c2ccccc2C(F)(F)F)c(Cl)c1 [Example 36, hydrochloride]
GI50 [1]: 30 nM | GI50 [2]: 60 nM | GI50 [3]: 120 nM

CN(C)CCNC(=O)c1ccc(-c2ccc(-c3ccccc3)n2-c2ccccc2C(F)(F)F)c(Cl)c1 [Example 37, hydrochloride]
GI50 [1]: 20 nM | GI50 [2]: 20 nM | GI50 [3]: 50 nM

CN(C)CCNC(=O)c1ccc(-c2ccc(-c3ccc(Br)cc3)n2-c2cnccc2C(F)(F)F)cc1 [Example 41]
GI50 [1]: 50 nM | GI50 [2]: 20 nM | GI50 [3]: 40 nM

CN(C)CCNC(=O)c1ccc(-c2ccc(-c3ccc(F)nc3)n2-c2ccccc2C(F)(F)F)cc1 [Example 42, hydrochloride]
GI50 [1]: 380 nM | GI50 [2]: 50 nM | GI50 [3]: 130 nM

COc1ccc(-c2ccc(-c3ccc(Br)cc3)n2-c2ccccc2C(F)(F)F)cc1C(=O)NCCN(C)C [Example 53, hydrochloride]
GI50 [1]: 560 nM | GI50 [2]: 220 nM | GI50 [3]: 340 nM

CN(C)CCNC(=O)c1cccc(-c2ccc(-c3ccc(Br)cc3)n2-c2ccccc2N)c1 [Example 56, hydrochloride]
GI50 [1]: 2710 nM | GI50 [2]: 2520 nM | GI50 [3]: 2190 nM

CN(C)CCNC(=O)c1ccc(-c2ccc(-c3ccc(C#N)cc3)n2-c2ccccc2C(F)(F)F)cc1 [Example 57]
GI50 [1]: 60 nM | GI50 [2]: 30 nM | GI50 [3]: 50 nM

CN(C)CCCNC(=O)c1ccc(-c2ccc(-c3ccc(Cl)cc3)n2-c2ccccc2C(F)(F)F)cc1 [Example 58]
GI50 [1]: 30 nM | GI50 [2]: 20 nM | GI50 [3]: 30 nM

CN(C)CCNC(=O)c1ccc(-c2ccc(-c3ccc(F)cc3)n2-c2ccccc2C(F)(F)F)cc1 [Example 59, hydrochloride]
GI50 [1]: 50 nM | GI50 [2]: 8 nM | GI50 [3]: 10 nM

CN(C)CCCNC(=O)c1ccc(-c2ccc(-c3ccc(F)cc3)n2-c2ccccc2C(F)(F)F)cc1 [Example 60, hydrochloride]
GI50 [1]: 60 nM | GI50 [2]: 10 nM | GI50 [3]: 30 nM

CN(C)CCNC(=O)c1ccc(-c2ccc(-c3ccc(Cl)cc3)n2-c2ccccc2C(F)(F)F)nc1 [Example 61, hydrochloride]
GI50 [1]: 60 nM | GI50 [2]: 5 nM | GI50 [3]: 20 nM

CN(C)CCCNC(=O)c1ccc(-c2ccc(-c3ccc(Cl)cc3)n2-c2ccccc2C(F)(F)F)nc1 [Example 62, hydrochloride]
GI50 [1]: 120 nM | GI50 [2]: 8 nM | GI50 [3]: 20 nM

CN1CC[C@@H](NC(=O)c2ccc(-c3ccc(-c4ccc(Cl)cc4)n3-c3ccccc3C(F)(F)F)cc2)C1 [Example 70, hydrochloride]
GI50 [1]: 20 nM | GI50 [2]: 3 nM | GI50 [3]: 5 nM

CN1CC[C@H](NC(=O)c2ccc(-c3ccc(-c4ccc(Cl)cc4)n3-c3ccccc3C(F)(F)F)cc2)C1 [Example 71, hydrochloride]
GI50 [1]: 20 nM | GI50 [2]: 5 nM | GI50 [3]: 10 nM
